According to US11078193B2 (priority 2014, dated 2021):

How the values were obtained:
HBV = assay: anti HBV activity, HepG2.117 inducibly HBV producing cell line (Tet-off), intracellular HBV DNA by realtime PCR; assay type: cell-based; conditions: Hepatitis B virus, 72 h, HepG2.117 cells, 3 days of treatment
[1] = Cytotoxicity, HepG2 cells, Resazurin assay; assay type: cell-based; conditions: human

| Structure (SMILES) | EC50 (HBV) | CC50 at 4 days [1] |
| --- | --- | --- |
| C[C@@H](NS(=O)(=O)c1cn(C)c(C(=O)Nc2c(F)cnc(F)c2F)c1Cl)C(F)(F)F [Compound 44, 3-chloro-1-methyl-4-[[(1R)-2,2,2-trifluoro-1-methyl-ethyl]sulfamoyl]-N-(2,3,5-trifluoro-4-pyridyl)pyrrole-2-carboxamide] | 640 nM | > 25000 nM |
| Cn1cc(S(=O)(=O)NC2(C(F)(F)F)CCC2)c(Cl)c1C(=O)Nc1cc(F)nc(F)c1 [Compound 109, 3-chloro-N-(2,6-difluoro-4-pyridyl)-1-methyl-4-[[1-(trifluoromethyl)cyclobutyl]sulfamoyl]pyrrole-2-carboxamide] | 10 nM | > 25000 nM |
| Cc1cc(NC(=O)c2c(Cl)c(S(=O)(=O)N[C@H](C)C(F)(F)F)cn2C)cc(C#N)n1 [Compound 36, 3-chloro-N-(2-cyano-6-methyl-4-pyridyl)-1-methyl-4-[[(1R)-2,2,2-trifluoro-1-methyl-ethyl]sulfamoyl]pyrrole-2-carboxamide] | 150 nM | > 25000 nM |
| C[C@@H](NS(=O)(=O)c1cn(C)c(C(=O)Nc2ccnc(Cl)c2)c1Cl)C(C)(F)F [Compound 94, 3-chloro-N-(2-chloro-4-pyridyl)-4-[[(1R)-2,2-difluoro-1-methyl-propyl]sulfamoyl]-1-methyl-pyrrole-2-carboxamide] | 30 nM | > 25000 nM |
| C[C@@H](NS(=O)(=O)c1cn(C)c(C(=O)Nc2ccnc(C(F)(F)F)c2F)c1Cl)C(F)(F)F [Compound 56, 3-chloro-N-[3-fluoro-2-(trifluoromethyl)-4-pyridyl]-1-methyl-4-[[(1R)-2,2,2-trifluoro-1-methyl-ethyl]sulfamoyl]pyrrole-2-carboxamide] | 50 nM | > 25000 nM |
| Cc1cc(NC(=O)c2c(F)c(S(=O)(=O)NC3(C(F)(F)F)CCC3)cn2C)cc(Br)n1 [Compound 164, N-(2-bromo-6-methyl-4-pyridyl)-3-fluoro-1-methyl-4-[[1-(trifluoromethyl)cyclobutyl]sulfamoyl]pyrrole-2-carboxamide] | 40 nM | > 25000 nM |
| Cn1cc(S(=O)(=O)NC2(C)CC(F)(F)C2)c(F)c1C(=O)Nc1cc(Br)nc(Br)c1 [Compound 135, N-(2,6-dibromo-4-pyridyl)-4-[(3,3-difluoro-1-methyl-cyclobutyl)sulfamoyl]-3-fluoro-1-methyl-pyrrole-2-carboxamide] | 180 nM | 13000 nM |
| C[C@@H](NS(=O)(=O)c1cn(C)c(C(=O)Nc2ccc(F)c(C#N)n2)c1Cl)C(F)(F)F [Compound 156, 3-chloro-N-(6-cyano-5-fluoro-2-pyridyl)-1-methyl-4-[[(1R)-2,2,2-trifluoro-1-methyl-ethyl]sulfamoyl]pyrrole-2-carboxamide] | 140 nM | > 25000 nM |
| Cn1cc(S(=O)(=O)NC2(C(F)(F)F)CCC2)c(F)c1C(=O)Nc1ccnc(Cl)c1 [Compound 122, N-(2-chloro-4-pyridyl)-3-fluoro-1-methyl-4-[[1-(trifluoromethyl)cyclobutyl]sulfamoyl]pyrrole-2-carboxamide] | 10 nM | > 25000 nM |
| CC[C@@H](C)NS(=O)(=O)c1cn(C)c(C(=O)Nc2ccnc(C#N)c2)c1Cl [Compound 72, 3-chloro-N-(2-cyano-4-pyridyl)-1-methyl-4-[[(1R)-1-methylpropyl]-sulfamoyl]pyrrole-2-carboxamide] | 100 nM | > 25000 nM |
| Cn1cc(S(=O)(=O)NC2(C(F)(F)F)CC2)cc1C(=O)Nc1ccnc(Cl)c1 [Compound 52, N-(2-chloro-4-pyridyl)-1-methyl-4-[[1-(trifluoromethyl)cyclopropyl]-sulfamoyl]pyrrole-2-carboxamide] | 80 nM | > 25000 nM |
| Cn1cc(S(=O)(=O)NC2(C)CC(F)(F)C2)c(Cl)c1C(=O)Nc1ccnc(Br)c1F [Compound 161, N-(2-bromo-3-fluoro-4-pyridyl)-3-chloro-4-[(3,3-difluoro-1-methyl-cyclobutyl)sulfamoyl]-1-methyl-pyrrole-2-carboxamide] | 10 nM | > 25000 nM |
| Cn1cc(S(=O)(=O)NC2(C)CC(F)(F)C2)c(F)c1C(=O)Nc1ccnc(Cl)c1 [Compound 54, N-(2-chloro-4-pyridyl)-4-[(3,3-difluoro-1-methyl-cyclobutyl)sulfamoyl]-3-fluoro-1-methyl-pyrrole-2-carboxamide] | 20 nM | > 25000 nM |
| Cn1cc(S(=O)(=O)NC2(C(F)(F)F)CCOCC2)c(Cl)c1C(=O)Nc1ccnc(Cl)c1 [Compound 180, 3-chloro-N-(2-chloro-4-pyridyl)-1-methyl-4-[[4-(trifluoromethyl)tetrahydropyran-4-yl]sulfamoyl]pyrrole-2-carboxamide] | 630 nM | > 25000 nM |
| Cn1cc(S(=O)(=O)NC2(CF)CCC2)c(F)c1C(=O)Nc1ccnc(C(F)F)c1 [Compound 128, N-[2-(difluoromethyl)-4-pyridyl]-3-fluoro-4-[[1-(fluoromethyl)cyclobutyl]sulfamoyl]-1-methyl-pyrrole-2-carboxamide] | 40 nM | > 25000 nM |
| CC[C@@H](C)NS(=O)(=O)c1cn(C)c(C(=O)Nc2ccnc(C(F)F)c2)c1F [Compound 86, N-[2-(difluoromethyl)-4-pyridyl]-3-fluoro-1-methyl-4-[[(1R)-1-methylpropyl]sulfamoyl]pyrrole-2-carboxamide] | 40 nM | 21600 nM |
| Cn1cc(S(=O)(=O)N[C@H]2CCOC2)c(Cl)c1C(=O)Nc1ccnc(Cl)c1 [Compound 91, 3-chloro-N-(2-chloro-4-pyridyl)-1-methyl-4-[[(3S)-tetrahydrofuran-3-yl]sulfamoyl]pyrrole-2-carboxamide] | 200 nM | > 25000 nM |
| Cn1cc(S(=O)(=O)N[C@H]2C[C@@H](O)C2)c(Cl)c1C(=O)Nc1ccnc(Cl)c1 [Compound 93, 3-chloro-N-(2-chloro-4-pyridyl)-4-[(3-hydroxycyclobutyl)sulfamoyl]-1-methyl-pyrrole-2-carboxamide] | 330 nM | > 25000 nM |
| Cc1cc(NC(=O)c2c(F)c(S(=O)(=O)NC3(C(F)(F)F)CCC3)cn2C)cc(C(F)F)n1 [Compound 173, N-[2-(difluoromethyl)-6-methyl-4-pyridyl]-3-fluoro-1-methyl-4-[[1-(trifluoromethyl)cyclobutyl]sulfamoyl]pyrrole-2-carboxamide] | 20 nM | > 25000 nM |
| C[C@@H](NS(=O)(=O)c1cn(C)c(C(=O)Nc2c(Cl)c(F)nc(F)c2Cl)c1Cl)C(F)(F)F [Compound 186, 3-chloro-N-(3,5-dichloro-2,6-difluoro-4-pyridyl)-1-methyl-4-[[(1R)-2,2,2-trifluoro-1-methyl-ethyl]sulfamoyl]pyrrole-2-carboxamide] | 10500 nM | > 25000 nM |
| CC[C@@H](C)NS(=O)(=O)c1cn(C)c(C(=O)Nc2ccnc(C(F)(F)F)c2)c1Cl [Compound 70, 3-chloro-1-methyl-4-[[(1R)-1-methylpropyl]sulfamoyl]-N-[2-(trifluoromethyl)-4-pyridyl]pyrrole-2-carboxamide] | 150 nM | > 25000 nM |
| Cc1cc(NC(=O)c2c(Cl)c(S(=O)(=O)N[C@H](C)C(F)(F)F)cn2C)cc(C)n1 [Compound 144, 3-chloro-N-(2,6-dimethyl-4-pyridyl)-1-methyl-4-[[(1R)-2,2,2-trifluoro-1-methyl-ethyl]sulfamoyl]pyrrole-2-carboxamide] | 300 nM | > 25000 nM |
